# Assay results published in ChEMBL document CHEMBL1143265, “Discovery of thiophene inhibitors of polo-like kinase” (Bioorg Med Chem Lett, 2009).
# pIC50: −log10 of the molar value.
# What was measured:
# [1] = tested on: HCT-116; test: Antiproliferative activity against human HCT116 cells after 3 days by methylene blue stain technique; assay type: functional, cell-based; details: HCT-116, 72 h
# [2] = target: Serine/threonine-protein kinase PLK1 (Homo sapiens, UniProt P53350); test: Inhibition of PLK1 expressed in baculovirus-infected Trichoplusia-ni cells by scintillation proximity assay
# Chain of Serine/threonine-protein kinase PLK1 (P53350 whole entry): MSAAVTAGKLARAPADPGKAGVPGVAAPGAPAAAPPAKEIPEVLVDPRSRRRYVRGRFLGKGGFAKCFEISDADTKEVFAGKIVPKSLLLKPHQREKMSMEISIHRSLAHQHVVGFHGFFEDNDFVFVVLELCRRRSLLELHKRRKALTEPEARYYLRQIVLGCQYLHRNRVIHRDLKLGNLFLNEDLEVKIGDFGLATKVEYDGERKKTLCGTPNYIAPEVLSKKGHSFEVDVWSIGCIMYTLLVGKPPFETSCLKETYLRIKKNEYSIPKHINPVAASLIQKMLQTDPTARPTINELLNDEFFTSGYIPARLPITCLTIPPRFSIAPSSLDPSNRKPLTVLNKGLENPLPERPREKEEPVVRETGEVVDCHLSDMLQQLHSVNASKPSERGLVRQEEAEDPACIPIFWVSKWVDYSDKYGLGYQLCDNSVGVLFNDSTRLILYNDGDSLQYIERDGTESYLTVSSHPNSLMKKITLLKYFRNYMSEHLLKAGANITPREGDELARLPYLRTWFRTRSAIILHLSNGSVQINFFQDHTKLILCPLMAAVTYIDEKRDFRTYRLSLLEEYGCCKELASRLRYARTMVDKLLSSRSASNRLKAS
# [3] = tested on: MCF7; test: Antiproliferative activity against human MCF7 cells after 3 days by methylene blue stain technique; assay type: functional, cell-based; details: MCF7, 72 h
# [4] = tested on: HN5; test: Antiproliferative activity against human HN5 cells after 3 days by methylene blue stain technique; assay type: functional, cell-based; details: HN5, 72 h
# [5] = tested on: NCI-N87; test: Antiproliferative activity against human NCI-N87 cells after 3 days by methylene blue stain technique; assay type: functional, cell-based; details: NCI-N87, 72 h
# [6] = target: Epidermal growth factor receptor (Homo sapiens, UniProt P00533); test: Inhibition of EGFR
# Chain of Epidermal growth factor receptor (P00533 whole entry): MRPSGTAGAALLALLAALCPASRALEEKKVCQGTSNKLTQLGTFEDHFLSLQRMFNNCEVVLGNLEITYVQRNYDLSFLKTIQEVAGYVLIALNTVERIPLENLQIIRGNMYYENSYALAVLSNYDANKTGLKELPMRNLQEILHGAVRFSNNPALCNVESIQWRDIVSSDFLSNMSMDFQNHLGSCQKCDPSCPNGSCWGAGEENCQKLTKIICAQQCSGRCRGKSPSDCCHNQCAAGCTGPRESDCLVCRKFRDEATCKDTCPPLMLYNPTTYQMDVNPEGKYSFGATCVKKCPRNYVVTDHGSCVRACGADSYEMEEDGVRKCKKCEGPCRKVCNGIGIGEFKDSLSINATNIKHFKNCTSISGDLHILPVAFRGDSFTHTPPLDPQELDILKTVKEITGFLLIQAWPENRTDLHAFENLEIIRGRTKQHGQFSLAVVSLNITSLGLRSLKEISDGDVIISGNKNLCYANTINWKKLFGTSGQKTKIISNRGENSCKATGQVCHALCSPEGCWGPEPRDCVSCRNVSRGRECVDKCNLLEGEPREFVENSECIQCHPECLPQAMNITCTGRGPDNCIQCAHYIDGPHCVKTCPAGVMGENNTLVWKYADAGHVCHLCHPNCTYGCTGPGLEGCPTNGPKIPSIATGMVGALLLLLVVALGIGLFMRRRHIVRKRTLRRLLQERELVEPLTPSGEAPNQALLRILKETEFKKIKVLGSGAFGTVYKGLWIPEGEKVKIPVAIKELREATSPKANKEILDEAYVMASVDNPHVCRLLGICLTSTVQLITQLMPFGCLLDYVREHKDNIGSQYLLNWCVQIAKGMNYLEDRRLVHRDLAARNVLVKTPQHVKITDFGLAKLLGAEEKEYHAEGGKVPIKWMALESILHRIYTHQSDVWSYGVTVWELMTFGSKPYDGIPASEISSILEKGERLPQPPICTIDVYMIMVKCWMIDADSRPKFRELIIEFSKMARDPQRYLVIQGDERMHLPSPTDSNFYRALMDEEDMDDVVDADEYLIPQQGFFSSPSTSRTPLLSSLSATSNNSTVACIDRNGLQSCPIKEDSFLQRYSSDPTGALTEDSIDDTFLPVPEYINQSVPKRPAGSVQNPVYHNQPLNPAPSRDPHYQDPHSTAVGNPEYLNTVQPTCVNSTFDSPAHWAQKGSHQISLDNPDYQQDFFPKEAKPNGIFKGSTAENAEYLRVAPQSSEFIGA
# [7] = tested on: A549; test: Antiproliferative activity against human A549 cells after 3 days by methylene blue stain technique; assay type: functional, cell-based; details: A549, 72 h
# [8] = Inhibition of GSK3
# [9] = Volume of distribution at steady state in mouse at 6.7 mg/kg, iv; assay type: ADME, organism-based; design: dose 6.7 mg/kg, route intravenous; details: in vivo, read-out: Vdss
# [10] = tested on: RKO; test: Antiproliferative activity against human RKO cells after 3 days by methylene blue stain technique; assay type: functional, cell-based; details: 72 h
# [11] = target: Mitogen-activated protein kinase 14 (Homo sapiens, UniProt Q16539); test: Inhibition of p38alpha
# Chain of Mitogen-activated protein kinase 14 (Q16539 whole entry): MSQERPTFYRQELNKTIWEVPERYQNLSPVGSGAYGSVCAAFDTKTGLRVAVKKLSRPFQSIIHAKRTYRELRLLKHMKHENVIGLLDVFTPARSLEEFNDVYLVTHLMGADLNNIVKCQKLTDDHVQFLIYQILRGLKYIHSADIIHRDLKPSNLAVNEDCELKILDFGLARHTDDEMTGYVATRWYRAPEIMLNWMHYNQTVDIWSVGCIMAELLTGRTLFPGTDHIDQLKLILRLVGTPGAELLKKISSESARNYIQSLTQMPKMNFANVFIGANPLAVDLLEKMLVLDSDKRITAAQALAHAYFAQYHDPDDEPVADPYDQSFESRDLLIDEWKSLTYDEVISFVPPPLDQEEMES
# [12] = AUC in mouse at 10 mg/kg, po; assay type: ADME, organism-based; design: dose 10 mg/kg, route oral; details: plasma
# [13] = Oral bioavailability in mouse at 10 mg/kg; assay type: ADME, organism-based; details: in vivo
# [14] = target: Proto-oncogene tyrosine-protein kinase Src (Homo sapiens, UniProt P12931); test: Inhibition of Src
# Chain of Proto-oncogene tyrosine-protein kinase Src (P12931 2-536 limits assumed): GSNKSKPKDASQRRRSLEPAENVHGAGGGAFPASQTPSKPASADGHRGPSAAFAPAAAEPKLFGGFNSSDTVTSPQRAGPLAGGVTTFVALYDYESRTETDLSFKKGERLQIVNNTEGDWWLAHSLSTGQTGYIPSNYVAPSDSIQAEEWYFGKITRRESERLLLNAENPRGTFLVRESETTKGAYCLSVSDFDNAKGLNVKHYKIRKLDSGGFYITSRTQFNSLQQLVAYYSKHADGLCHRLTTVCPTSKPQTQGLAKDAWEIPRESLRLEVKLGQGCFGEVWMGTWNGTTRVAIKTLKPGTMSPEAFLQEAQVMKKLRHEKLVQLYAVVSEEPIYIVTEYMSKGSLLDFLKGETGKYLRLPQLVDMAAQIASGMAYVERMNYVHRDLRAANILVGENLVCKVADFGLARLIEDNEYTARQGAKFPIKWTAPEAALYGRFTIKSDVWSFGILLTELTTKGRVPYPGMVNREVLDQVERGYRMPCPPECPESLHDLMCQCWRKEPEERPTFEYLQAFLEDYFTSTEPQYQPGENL
# [15] = Clearance in mouse at 6.7 mg/kg, iv; assay type: ADME, organism-based; design: dose 6.7 mg/kg, route intravenous; details: in vivo
# [16] = tested on: NCI-H460; test: Antiproliferative activity against human H460 cells after 3 days by methylene blue stain technique; assay type: functional, cell-based; details: NCI-H460, 72 h
# [17] = tested on: PC-3; test: Antiproliferative activity against human PC3 cells after 3 days by methylene blue stain technique; assay type: functional, cell-based; details: PC-3, 72 h
# [18] = target: Vascular endothelial growth factor receptor 3 (Homo sapiens, UniProt P35916); test: Inhibition of VEGFR3
# Chain of Vascular endothelial growth factor receptor 3 (P35916 whole entry): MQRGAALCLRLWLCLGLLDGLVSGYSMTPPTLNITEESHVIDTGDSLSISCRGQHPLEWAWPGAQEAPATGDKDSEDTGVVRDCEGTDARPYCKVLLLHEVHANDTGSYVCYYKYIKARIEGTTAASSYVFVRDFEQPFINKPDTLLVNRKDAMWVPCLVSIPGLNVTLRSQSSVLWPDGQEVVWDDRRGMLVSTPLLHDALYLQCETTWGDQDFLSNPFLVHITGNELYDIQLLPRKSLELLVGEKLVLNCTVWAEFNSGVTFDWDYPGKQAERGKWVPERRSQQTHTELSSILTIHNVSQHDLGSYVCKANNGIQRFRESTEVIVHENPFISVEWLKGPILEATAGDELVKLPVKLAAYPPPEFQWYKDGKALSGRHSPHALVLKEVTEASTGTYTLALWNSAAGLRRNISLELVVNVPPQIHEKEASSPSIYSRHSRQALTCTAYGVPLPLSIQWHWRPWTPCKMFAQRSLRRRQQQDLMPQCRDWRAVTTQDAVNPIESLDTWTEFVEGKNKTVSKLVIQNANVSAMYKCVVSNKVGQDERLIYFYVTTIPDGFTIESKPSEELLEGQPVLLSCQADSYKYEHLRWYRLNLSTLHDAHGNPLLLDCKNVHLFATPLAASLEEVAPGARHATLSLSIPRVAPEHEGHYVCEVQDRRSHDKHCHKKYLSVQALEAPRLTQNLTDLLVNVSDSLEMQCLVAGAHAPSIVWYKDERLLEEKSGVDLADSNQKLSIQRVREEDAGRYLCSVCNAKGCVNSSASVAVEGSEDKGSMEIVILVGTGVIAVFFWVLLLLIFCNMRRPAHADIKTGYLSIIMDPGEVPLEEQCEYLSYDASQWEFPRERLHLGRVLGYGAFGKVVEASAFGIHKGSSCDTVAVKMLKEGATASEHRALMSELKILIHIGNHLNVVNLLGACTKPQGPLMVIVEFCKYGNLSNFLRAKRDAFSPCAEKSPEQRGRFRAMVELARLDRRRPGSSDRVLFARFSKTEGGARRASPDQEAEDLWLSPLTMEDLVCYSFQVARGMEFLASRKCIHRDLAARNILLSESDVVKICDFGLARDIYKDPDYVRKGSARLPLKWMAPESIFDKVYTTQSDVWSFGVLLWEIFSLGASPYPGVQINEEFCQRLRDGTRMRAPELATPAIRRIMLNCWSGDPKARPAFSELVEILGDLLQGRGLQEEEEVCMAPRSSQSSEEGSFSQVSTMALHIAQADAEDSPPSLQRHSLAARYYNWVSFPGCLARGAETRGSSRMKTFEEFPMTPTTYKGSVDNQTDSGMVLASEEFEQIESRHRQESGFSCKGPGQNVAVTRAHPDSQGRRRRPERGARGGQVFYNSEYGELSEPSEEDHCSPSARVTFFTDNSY
compound,measurement,setting,value
COc1ccccc1COc1cc(-n2cnc3cc(OC)c(OC)cc32)sc1C(N)=O,pIC50,[1],5.68
same,pIC50,[2],8.10
COc1cc2ncn(-c3cc(OCc4ccco4)c(C(N)=O)s3)c2cc1OC,pIC50,[1],< 4.60
same,pIC50,[2],7.57
NC(=O)c1sc(-n2cnc3ccccc32)cc1OCc1ccccc1,pIC50,[2],7.21
COc1cc2ncn(-c3cc(OCc4cccc(N(C)C)c4)c(C(N)=O)s3)c2cc1OC,pIC50,[1],5.46
same,pIC50,[2],7.51
NC(=O)c1sc(-n2cnc3ccc(C(F)(F)F)cc32)cc1OCc1ccccc1Br [GW853606X],pIC50,[1],5.44
same,pIC50,[2],8.05
NC(=O)c1sc(-n2cnc3cc(C(F)(F)F)ccc32)cc1OCc1ccccc1Br [GW853609X],pIC50,[1],< 4.52
same,pIC50,[2],6.52
COc1cc2ncn(-c3cc(OCc4ccccc4C#N)c(C(N)=O)s3)c2cc1OC,pIC50,[1],5.58
same,pIC50,[2],8.22
NC(=O)c1sc(-n2cnc3ccccc32)cc1OCc1ccccc1F,pIC50,[2],7.85
COc1cc2ncn(-c3cc(OCc4ccccc4Cl)c(C(N)=O)s3)c2cc1OC [GW852849X],pIC50,[1],6.00
same,pIC50,[2],8.70
COc1cc2ncn(-c3cc(OCc4ccoc4)c(C(N)=O)s3)c2cc1OC,pIC50,[1],4.72
same,pIC50,[2],6.72
Cc1ccccc1COc1cc(-n2cnc3cc(Cl)ccc32)sc1C(N)=O,pIC50,[1],< 4.55
same,pIC50,[2],7.68
Cc1ccccc1COc1cc(-n2cnc3ccc(Cl)cc32)sc1C(N)=O,pIC50,[1],5.77
same,pIC50,[2],8.40
NC(=O)c1sc(-n2cnc3ccccc32)cc1OCc1ccccc1Cl,pIC50,[2],7.92
COc1ccccc1COc1cc(-n2cnc3ccccc32)sc1C(N)=O,pIC50,[2],7.92
COc1cc2ncn(-c3cc(OCc4ccccc4OC(F)(F)F)c(C(N)=O)s3)c2cc1OC,pIC50,[1],5.94
same,pIC50,[2],8.30
Cc1cccc(COc2cc(-n3cnc4ccccc43)sc2C(N)=O)c1,pIC50,[2],7.92
CS(=O)(=O)c1ccc2c(c1)ncn2-c1cc(OCc2ccccc2C(F)(F)F)c(C(N)=O)s1,pIC50,[1],< 4.52
same,pIC50,[2],6.60
COc1cc2ncn(-c3cc(OCc4ccsc4)c(C(N)=O)s3)c2cc1OC,pIC50,[1],5.82
same,pIC50,[2],7.77
COc1cc2ncn(-c3cc(OCc4ccccc4C(F)(F)F)c(C(N)=S)s3)c2cc1OC,pIC50,[1],< 4.52
same,pIC50,[2],8.22
CS(=O)(=O)c1ccc2ncn(-c3cc(OCc4ccccc4C(F)(F)F)c(C(N)=O)s3)c2c1,pIC50,[1],5.53
same,pIC50,[2],7.92
COc1ccc(COc2cc(-n3cnc4cc(OC)c(OC)cc43)sc2C(N)=O)cc1,pIC50,[1],4.92
same,pIC50,[2],7.89
NC(=O)c1sc(-n2cnc3ccccc32)cc1OCc1ccccc1Br [GSK-1023156A],pIC50,[2],7.96
Cc1ccc(COc2cc(-n3cnc4ccccc43)sc2C(N)=O)cc1,pIC50,[2],7.15
COc1cc2ncn(-c3cc(OCc4ccccc4C(C)=O)c(C(N)=O)s3)c2cc1OC,pIC50,[1],5.58
same,pIC50,[2],7.77
COc1cc2ncn(-c3cc(OCc4ccccc4S(C)(=O)=O)c(C(N)=O)s3)c2cc1OC,pIC50,[1],5.27
same,pIC50,[2],7.51
COc1cc2ncn(-c3cc(OCc4cccs4)c(C(N)=O)s3)c2cc1OC [GSK-312948A],pIC50,[1],5.81
same,pIC50,[2],7.96
COc1cc2ncn(-c3cc(OCc4ccccc4C(F)(F)F)c(C(N)=O)s3)c2cc1OC [GW843682X],pIC50,[3],6.25
same,pIC50,[4],6.17
same,pIC50,[5],6.22
same,pIC50,[6],< 4.32
same,pIC50,[7],6.39
same,pIC50,[8],< 4.82
same,Vd,[9],1.5 L/kg
same,pIC50,[10],6.40
same,pIC50,[1],6.16
same,pIC50,[11],< 4.82
same,AUC,[12],489 ng·h/mL
same,pIC50,[2],8.70
same,bioavailability,[13],14%
same,pIC50,[14],< 4.52
same,clearance,[15],47.4 mL/min/kg
same,pIC50,[16],6.42
same,pIC50,[17],5.17
same,pIC50,[18],7.04
COc1cc2ncn(-c3cc(OCc4cccc(C#N)c4)c(C(N)=O)s3)c2cc1OC,pIC50,[1],< 4.52
same,pIC50,[2],7.00
COc1cccc(COc2cc(-n3cnc4ccccc43)sc2C(N)=O)c1 [GW804482X],pIC50,[2],7.55
NC(=O)c1sc(-n2cnc3ccccc32)cc1OCc1ccc(Cl)cc1,pIC50,[2],7.00
COc1cc2ncn(-c3cc(OCc4ccccc4C(F)(F)F)c(C(=O)O)s3)c2cc1OC,pIC50,[1],5.12
COc1cc2ncn(-c3cc(OCc4ccccc4)c(C(N)=O)s3)c2cc1OC,pIC50,[1],5.96
same,pIC50,[2],7.92
COc1cc2ncn(-c3cc(OCc4ccc(S(C)(=O)=O)cc4)c(C(N)=O)s3)c2cc1OC,pIC50,[1],< 4.52
same,pIC50,[2],7.12
COC(=O)c1sc(-n2cnc3cc(OC)c(OC)cc32)cc1OCc1ccccc1C(F)(F)F [GSK-1030058A],pIC50,[2],< 6.00
COc1cc2ncn(-c3cc(OCc4ccnc(Br)c4)c(C(N)=O)s3)c2cc1OC,pIC50,[1],5.75
same,pIC50,[2],7.85
COc1cc2ncn(-c3cc(OCc4ccncc4)c(C(N)=O)s3)c2cc1OC,pIC50,[1],4.68
same,pIC50,[2],6.89
COc1cc2ncn(-c3cc(OCc4ccccc4C(F)(F)F)c(C(C)=O)s3)c2cc1OC [GSK-1030059A],pIC50,[2],7.07
CNC(=O)c1sc(-n2cnc3cc(OC)c(OC)cc32)cc1OCc1ccccc1C(F)(F)F [GSK-1030061A],pIC50,[2],< 6.00
COc1cc2ncn(-c3cc(OCc4cccc(N)c4)c(C(N)=O)s3)c2cc1OC,pIC50,[1],5.64
same,pIC50,[2],7.68
COc1cc2ncn(-c3cc(OCc4ccccc4Br)c(C(N)=O)s3)c2cc1OC,pIC50,[1],6.03
same,pIC50,[2],8.70
COc1ccc2c(c1)ncn2-c1cc(OCc2ccccc2C(F)(F)F)c(C(N)=O)s1,pIC50,[1],5.57
same,pIC50,[2],8.10
COc1cc2ncn(-c3cc(OCC4CCCCC4)c(C(N)=O)s3)c2cc1OC,pIC50,[1],5.51
Cc1ccccc1COc1cc(-n2cnc3ccccc32)sc1C(N)=O,pIC50,[2],7.92
COc1cc2ncn(-c3cc(OCCCc4ccccc4)c(C(N)=O)s3)c2cc1OC,pIC50,[1],5.11
COc1cc2ncn(-c3cc(OCC4CCCC4)c(C(N)=O)s3)c2cc1OC,pIC50,[1],5.47
same,pIC50,[2],7.47
COc1cc2ncn(-c3cc(OCCc4ccccc4)c(C(N)=O)s3)c2cc1OC [GSK-204925A],pIC50,[1],4.62
COc1cc2ncn(-c3cc(OCc4ccccc4C(F)(F)F)c(C#N)s3)c2cc1OC,pIC50,[2],6.15
COc1ccc2ncn(-c3cc(OCc4ccccc4C(F)(F)F)c(C(N)=O)s3)c2c1,pIC50,[1],5.91
same,pIC50,[2],8.70
COc1cc2ncn(-c3cc(OCc4sccc4Cl)c(C(N)=O)s3)c2cc1OC,pIC50,[1],5.83
same,pIC50,[2],8.70
COc1cc2ncn(-c3cc(OCc4ccccc4C(F)(F)F)c(C(=O)N(C)C)s3)c2cc1OC [GSK-1030062A],pIC50,[2],< 6.00
COc1cc2ncn(-c3cc(OCc4ccccc4C(F)(F)F)c(-c4nnn[nH]4)s3)c2cc1OC,pIC50,[1],< 4.52
COc1ccc(COc2cc(-n3cnc4ccccc43)sc2C(N)=O)cc1,pIC50,[2],7.46
NC(=O)c1sc(-n2cnc3ccccc32)cc1OCc1cccc(Cl)c1,pIC50,[2],7.66
